{"source": "patent US11813305B2", "about": "“Endoplasmic reticulum stress as a predictive tool in cancer therapy and a combination therapy for the treatment of cancer” (IMMUNE SYSTEM KEY LTD., priority 2016, dated 2023)", "key": {"[1]": {"tested_on": "healthy human peripheral immune cells", "type": "cell-based", "settings": "data not shown", "source_text": "Therefore, without wishing to be bound by theory, dTCApFs appears to selectively affect cancer cells."}, "[2]": {"settings": "human, in vivo", "description": "(§1) The dose escalation study followed a traditional “3+3” scheme and included doses of 6, 12, 24, 48, and 96 mg/m^2 intravenous (i.v.) dTCApFs, 3 times/week in consecutive 28-day cycles. In all 3-patient cohorts, there were 2-4 weeks between the first dose for the first and second patients, and ≥1 week for the third patient. New dose levels started after follow up of ≥28 days for 3 patients at the previous level. MTD was defined as the highest dose level at which ≥1 of 3 subjects experience a DLT during their first cycle of treatment. […] In addition, PK parameters, including area under the curve (AUC), maximal plasma concentration (Cmax), and plasma half-life (t1/2) were determined. PK parameters were estimated using non-compartmental models.\n(§2) dTCApFs powder for solution for injection is supplied as a lyophilized 5 mL vial containing either 15 mg (7.5 mg/mL) or 10 mL vial containing 80 mg (40 mg/mL) of the active substance with 4.8% mannitol, for reconstitution to a final volume of 2 mL with water for injection per vial as described above. The reconstituted 2 mL vial of dTCApFs powder for solution for injection must thereafter be diluted to a final volume 100 mL in aqueous Dextrose 5% for infusion for dose levels up to and including 48 mg/m2. For dose levels above 48 mg/m2, the final dilution volume was 250 mL. dTCApFs for injection was administered intravenously (iv) during 60 minutes.\n(§3) PK parameters, including AUC (0-24), Cmax, Cmin, Tmax and t1/2 are estimated using non-compartmental models. Comparisons across dose levels are made to assess proportionality."}, "[3]": {"assay": "Pharmacokinetics of dTCApFs, phase I dose escalation study, i.v. 3 times/week", "settings": "human, plasma", "description": "as §1, §2, §3"}}, "note": "Square brackets hold non-standard residues; d marks the D form. Peptide text beside a SMILES is read from it.", "data": [{"smiles": "CC(C)C[C@@H](NC(=O)[C@H](NC(=O)[C@@H](CO)NC(=O)[C@H]1CCCN1C(=O)[C@@H](CC(C)C)NC(=O)[C@@H](Cc1ccccc1)NC(=O)[C@@H](Cc1ccccc1)NC(=O)[C@H](NC(=O)[C@@H](Cc1c[nH]c2ccccc12)NC(=O)[C@H](N)Cc1c[nH]c2ccccc12)[C@H](C)O)[C@H](C)O)C(=O)N[C@H](Cc1c[nH]c2ccccc12)C(=O)N[C@H](CCC(=O)O)C(=O)N[C@H](CCCNC(=N)N)C(=O)N[C@H](CCCCN)C(=O)O", "note": "[dTCApFs, Trp Trp Thr Phe Phe Leu Pro Ser Thr Leu Trp Glu Arg Lys] (H-[dW][dW][dT][dF][dF][dL][dP][dS][dT][dL][dW][dE][dR][dK]-OH; N-terminus and C-terminus assumed)", "values": [{"measurement": "cell death", "setting": "[1]", "result": "only minor cell death occurred"}, {"measurement": "relation of t1/2, Cmax and AUC0 to dose", "setting": "[2]", "result": "linearly related to dose"}, {"measurement": "Cmax", "setting": "[3]; intravenous, 12 mg/m^2, Cmax, Cycle 2, Day 1, 12 mg/m^2, n = 4", "result": 6050, "unit": "ng/mL"}, {"measurement": "Cmax", "setting": "[3]; intravenous, 24 mg/m^2, Cmax, Cycle 2, Day 1, 24 mg/m^2, n = 4", "result": 14600, "unit": "ng/mL"}, {"measurement": "AUC", "setting": "[3]; intravenous, 96 mg/m^2, AUC0, Cycle 2, Day 1, 96 mg/m^2, n = 3", "result": 295000, "unit": "ng·h/mL"}, {"measurement": "AUC", "setting": "[3]; iv, 6 mg/m2, AUC0, Cycle 1, Day 1, 6 mg/m^2, n = 3", "result": 3810, "unit": "ng·h/mL"}, {"measurement": "AUC", "setting": "[3]; iv, 6 mg/m2, AUC0, Cycle 2, Day 1, 6 mg/m^2, n = 3", "result": 9720, "unit": "ng·h/mL"}, {"measurement": "Cmax", "setting": "[3]; iv, 6 mg/m2, Cmax, Cycle 1, Day 1, 6 mg/m^2, n = 3", "result": 1210, "unit": "ng/mL"}, {"measurement": "Cmax", "setting": "[3]; iv, 6 mg/m2, Cmax, Cycle 2, Day 1, 6 mg/m^2, n = 3", "result": 1540, "unit": "ng/mL"}, {"measurement": "half-life", "setting": "[3]; iv, 6 mg/m2, T1/2, Cycle 1, Day 1, 6 mg/m^2, n = 3", "result": 2.3, "unit": "h"}, {"measurement": "half-life", "setting": "[3]; iv, 6 mg/m2, T1/2, Cycle 2, Day 1, 6 mg/m^2, n = 3", "result": 2.8, "unit": "h"}, {"measurement": "AUC", "setting": "[3]; iv, 12 mg/m2, AUC0, Cycle 1, Day 1, 12 mg/m^2, n = 4", "result": 12900, "unit": "ng·h/mL"}, {"measurement": "AUC", "setting": "[3]; iv, 12 mg/m2, AUC0, Cycle 2, Day 1, 12 mg/m^2, n = 4", "result": 11500, "unit": "ng·h/mL"}, {"measurement": "Cmax", "setting": "[3]; iv, 12 mg/m2, Cmax, Cycle 1, Day 1, 12 mg/m^2, n = 4", "result": 6050, "unit": "ng/mL"}, {"measurement": "half-life", "setting": "[3]; iv, 12 mg/m2, T1/2, Cycle 1, Day 1, 12 mg/m^2, n = 4", "result": 2.1, "unit": "h"}, {"measurement": "half-life", "setting": "[3]; iv, 12 mg/m2, T1/2, Cycle 2, Day 1, 12 mg/m^2, n = 4", "result": 2, "unit": "h"}, {"measurement": "AUC", "setting": "[3]; iv, 24 mg/m2, AUC0, Cycle 1, Day 1, 24 mg/m^2, n = 4", "result": 49600, "unit": "ng·h/mL"}, {"measurement": "AUC", "setting": "[3]; iv, 24 mg/m2, AUC0, Cycle 2, Day 1, 24 mg/m^2, n = 4", "result": 57100, "unit": "ng·h/mL"}, {"measurement": "Cmax", "setting": "[3]; iv, 24 mg/m2, Cmax, Cycle 1, Day 1, 24 mg/m^2, n = 4", "result": 14600, "unit": "ng/mL"}, {"measurement": "half-life", "setting": "[3]; iv, 24 mg/m2, T1/2, Cycle 1, Day 1, 24 mg/m^2, n = 4", "result": 3.2, "unit": "h"}, {"measurement": "half-life", "setting": "[3]; iv, 24 mg/m2, T1/2, Cycle 2, Day 1, 24 mg/m^2, n = 4", "result": 3.7, "unit": "h"}, {"measurement": "AUC", "setting": "[3]; iv, 48 mg/m2, AUC0, Cycle 1, Day 1, 48 mg/m^2, n = 4", "result": 79900, "unit": "ng·h/mL"}, {"measurement": "AUC", "setting": "[3]; iv, 48 mg/m2, AUC0, Cycle 2, Day 1, 48 mg/m^2, n = 4", "result": 100000, "unit": "ng·h/mL"}, {"measurement": "Cmax", "setting": "[3]; iv, 48 mg/m2, Cmax, Cycle 1, Day 1, 48 mg/m^2, n = 4", "result": 18300, "unit": "ng/mL"}, {"measurement": "Cmax", "setting": "[3]; iv, 48 mg/m2, Cmax, Cycle 2, Day 1, 48 mg/m^2, n = 4", "result": 22100, "unit": "ng/mL"}, {"measurement": "half-life", "setting": "[3]; iv, 48 mg/m2, T1/2, Cycle 1, Day 1, 48 mg/m^2, n = 4", "result": 4.9, "unit": "h"}, {"measurement": "half-life", "setting": "[3]; iv, 48 mg/m2, T1/2, Cycle 2, Day 1, 48 mg/m^2, n = 4", "result": 4.6, "unit": "h"}, {"measurement": "AUC", "setting": "[3]; iv, 96 mg/m2, AUC0, Cycle 1, Day 1, 96 mg/m^2, n = 3", "result": 207000, "unit": "ng·h/mL"}, {"measurement": "Cmax", "setting": "[3]; iv, 96 mg/m2, Cmax, Cycle 1, Day 1, 96 mg/m^2, n = 3", "result": 33000, "unit": "ng/mL"}, {"measurement": "Cmax", "setting": "[3]; iv, 96 mg/m2, Cmax, Cycle 2, Day 1, 96 mg/m^2, n = 3", "result": 32000, "unit": "ng/mL"}, {"measurement": "half-life", "setting": "[3]; iv, 96 mg/m2, T1/2, Cycle 1, Day 1, 96 mg/m^2, n = 3", "result": 6, "unit": "h"}, {"measurement": "half-life", "setting": "[3]; iv, 96 mg/m2, T1/2, Cycle 2, Day 1, 96 mg/m^2, n = 3", "result": 8.5, "unit": "h"}]}]}
